IC50 and GI50 data for twelve compounds are collected here from patent publication US20260167619A2, “INDOLINE COMPOUNDS AND DERIVATIVES AS EGFR INHIBITORS” (BeOne Medicines I GmbH, priority 2020, published 2026).

By IC50 is commonly meant the concentration needed to halve the response being measured.

Experiment [1] addresses T1, EGFR(L858R_T790M_C797S) (aa695-end, Invitrogen) (Homo sapiens, UniProt P00533, C797S/L858R/T790M).
T1 construct: purchased Invitrogen
In words: Biochemical EGFR inhibition assay (TR-FRET), L858R/T790M/C797S mutant. The note with it: ATP at Km, 15 min pre-incubation, 60 min reaction; read-out: LR_TM_CS (Km ATP) IC50. In outline:
(§1)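 Recombinant kinase domains pre-incubated with compound 15 min at room temperature in HEPES pH 7.5 buffer, then reacted 60 min with ATP at Km and biotin-poly GT substrate. Phosphotyrosine detected by TR-FRET (Eu-anti-pTyr/streptavidin-XL665, 665/620 nm ratio); IC50 from four-parameter logistic fit.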
On the technique in general: TR-FRET usually uses a lanthanide donor and a delayed reading to cut background.

In experiment [2] the target is EGFR(Dell9_T790M_C797S) (aa 669-1210, in house) (Homo sapiens, UniProt P00533, T790M/C797S, form not given). Description: Biochemical EGFR inhibition assay (TR-FRET), Del19/T790M/C797S mutant. The note with it: ATP at Km, 15 min pre-incubation, 60 min reaction; read-out: Del_TM_CS (Km ATP) IC50. In a few lines: as §1
The target in experiment [3] is T2, EGFR (aa668-1210, Invitrogen) (Homo sapiens, UniProt P00533).
T2 construct: EGFR (aa668-1210, Invitrogen); purchased Invitrogen
In words: Biochemical EGFR inhibition assay (TR-FRET), wild-type EGFR. The note with it: ATP at Km, 15 min pre-incubation, 60 min reaction; read-out: WT (Km ATP) IC50. In outline:
as §1

A further experiment concerns the target BaF3-LR_TM_CS cells (Homo sapiens, UniProt P00533, T790M/C797S/L858R, cells depend on it). In words: Cell antiproliferation assay (CellTiter-Glo), BaF3-LR_TM_CS. The conditions noted are these: 48 h treatment, read-out: BaF3-LR_TM_CS IC50. It counts as cell-based. On the procedure:
(§2) BaF3 cells are treated with compounds diluted in 0.2% DMSO, dilution is done according to the following protocol: (1) make 500× stock solution in DMSO from 5 mM by 5-fold dilution, total 8 doses were included; (2) make 10× solution in cell culture medium by transferring 2 μl 500× stock solution into 98 μl medium; (3) 10 μl of 10× solution is added to cells and incubate for 48 h.
(§3) After 48 h treatment, add 30 μl CellTiter-Glo reagent[CellTiter-Glo® 2.0, (Promega, Cat #G9242)] to each well; seal the plate and incubate 2 min at room temperature on a plate shaker; Allow the plate to incubate at room temperature for 10 minutes to stabilize the luminescent signal. Record luminescence on BMG PheraStar with luminescence protocol.
(§4) The IC50 value of a compound can be obtained by fitting the following equation
(§5) Wherein, X and Y are known values, and IC50, Hillslope, Top and Bottom are the parameters obtained by fitting with software. Y is the inhibition percentage (calculated from the equation), X is the concentration of the compound; IC50 is the concentration of the compound when the 50% inhibition is reached. The smaller the IC50 value is, the stronger the inhibitory ability of the compound is. Vice versa, the higher the IC50 value is, the weaker the ability the inhibitory ability of the compound is; Hillslope represents the slope of the fitted curve, generally around 1 *; Bottom represents the minimum value of the curve obtained by data fitting, which is generally 0%±20%; Top represents the maximum value of the curve obtained by data fitting, which is generally 100%±20%. The experimental data were fitted by calculating and analyzing with Dotmatics data analysis software.
On the technique in general: In ATP-based viability assays light output follows the ATP content of the culture.

In the next experiment the target is BaF3-WT cells (Homo sapiens, UniProt P00533). In words: Cell antiproliferation assay (CellTiter-Glo), BaF3-WT. The conditions noted are these: 48 h treatment, read-out: BaF3-WT IC50. It counts as cell-based. Here is the method:
as §2, §3, §4, §5

In the next experiment the target is BaF3-Del_TM_CS cells (Homo sapiens, UniProt P00533, T790M/C797S, cells depend on it, form not given). In words: Cell antiproliferation assay (CellTiter-Glo), BaF3-Del_TM_CS. It counts as cell-based. The note with it: 48 h treatment, read-out: BaF3-Del_TM_CS IC50. Here is the method:
as §2, §3, §4, §5

T2 sequence (P00533 668-1210): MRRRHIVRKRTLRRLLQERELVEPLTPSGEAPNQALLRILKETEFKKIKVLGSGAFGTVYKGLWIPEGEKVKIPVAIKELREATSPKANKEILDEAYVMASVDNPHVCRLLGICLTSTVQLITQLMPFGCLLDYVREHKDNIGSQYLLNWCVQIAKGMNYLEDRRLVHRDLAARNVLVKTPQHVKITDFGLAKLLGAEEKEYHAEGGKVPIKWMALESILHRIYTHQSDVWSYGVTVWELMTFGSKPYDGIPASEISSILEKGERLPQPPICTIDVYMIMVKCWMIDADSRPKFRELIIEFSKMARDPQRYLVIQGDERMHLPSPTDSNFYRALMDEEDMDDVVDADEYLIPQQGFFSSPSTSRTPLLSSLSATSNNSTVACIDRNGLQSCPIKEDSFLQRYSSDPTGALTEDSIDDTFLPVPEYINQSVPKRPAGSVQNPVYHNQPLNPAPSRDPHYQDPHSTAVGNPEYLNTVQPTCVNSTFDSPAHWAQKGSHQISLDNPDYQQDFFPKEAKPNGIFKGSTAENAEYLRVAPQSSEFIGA
Chain of BaF3-LR_TM_CS cells (P00533 whole entry T790M/C797S/L858R): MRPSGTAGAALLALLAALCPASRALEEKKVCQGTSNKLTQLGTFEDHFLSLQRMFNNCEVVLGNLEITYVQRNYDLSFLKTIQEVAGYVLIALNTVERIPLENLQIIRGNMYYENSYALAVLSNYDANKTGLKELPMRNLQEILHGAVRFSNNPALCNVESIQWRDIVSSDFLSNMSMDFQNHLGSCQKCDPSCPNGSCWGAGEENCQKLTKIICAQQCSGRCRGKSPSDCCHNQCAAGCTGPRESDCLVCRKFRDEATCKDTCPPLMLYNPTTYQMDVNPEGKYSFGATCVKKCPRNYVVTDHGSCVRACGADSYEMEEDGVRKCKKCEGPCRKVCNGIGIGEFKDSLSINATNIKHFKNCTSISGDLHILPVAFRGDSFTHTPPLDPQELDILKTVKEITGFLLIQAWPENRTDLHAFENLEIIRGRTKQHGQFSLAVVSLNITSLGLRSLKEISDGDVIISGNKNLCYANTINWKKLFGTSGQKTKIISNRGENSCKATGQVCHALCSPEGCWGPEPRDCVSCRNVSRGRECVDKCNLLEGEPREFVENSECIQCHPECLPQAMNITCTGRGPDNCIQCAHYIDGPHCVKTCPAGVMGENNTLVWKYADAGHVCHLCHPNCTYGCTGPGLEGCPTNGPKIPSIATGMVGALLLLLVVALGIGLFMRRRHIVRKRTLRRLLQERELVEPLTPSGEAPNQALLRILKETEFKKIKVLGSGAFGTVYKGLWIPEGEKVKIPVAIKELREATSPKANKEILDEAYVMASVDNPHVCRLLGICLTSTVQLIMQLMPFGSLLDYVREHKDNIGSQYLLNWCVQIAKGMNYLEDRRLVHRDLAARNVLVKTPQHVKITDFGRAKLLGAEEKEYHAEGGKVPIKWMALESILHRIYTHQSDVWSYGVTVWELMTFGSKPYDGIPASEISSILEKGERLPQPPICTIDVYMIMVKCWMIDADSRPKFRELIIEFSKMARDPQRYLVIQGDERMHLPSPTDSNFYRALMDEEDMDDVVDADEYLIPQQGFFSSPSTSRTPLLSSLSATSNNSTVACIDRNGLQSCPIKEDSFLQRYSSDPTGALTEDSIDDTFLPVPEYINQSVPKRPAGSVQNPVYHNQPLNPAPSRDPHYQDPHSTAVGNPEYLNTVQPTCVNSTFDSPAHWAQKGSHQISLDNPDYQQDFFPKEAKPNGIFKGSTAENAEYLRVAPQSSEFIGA
T1 sequence (P00533 695-1210 T790M/C797S/L858R): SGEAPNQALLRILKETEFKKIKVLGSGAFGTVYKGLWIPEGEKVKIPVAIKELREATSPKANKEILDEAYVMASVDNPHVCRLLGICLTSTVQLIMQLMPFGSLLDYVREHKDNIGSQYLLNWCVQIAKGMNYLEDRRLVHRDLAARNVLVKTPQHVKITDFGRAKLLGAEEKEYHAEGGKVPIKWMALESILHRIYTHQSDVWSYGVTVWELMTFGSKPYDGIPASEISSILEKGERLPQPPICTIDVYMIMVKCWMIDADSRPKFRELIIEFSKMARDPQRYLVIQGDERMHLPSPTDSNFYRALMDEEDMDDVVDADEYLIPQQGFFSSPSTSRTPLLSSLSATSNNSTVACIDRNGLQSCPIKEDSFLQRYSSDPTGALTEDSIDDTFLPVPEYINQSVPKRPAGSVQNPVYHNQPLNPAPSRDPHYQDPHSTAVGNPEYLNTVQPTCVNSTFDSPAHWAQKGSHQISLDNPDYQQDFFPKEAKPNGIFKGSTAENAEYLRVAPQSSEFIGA
Chain of BaF3-WT cells (P00533 whole entry, change not shown): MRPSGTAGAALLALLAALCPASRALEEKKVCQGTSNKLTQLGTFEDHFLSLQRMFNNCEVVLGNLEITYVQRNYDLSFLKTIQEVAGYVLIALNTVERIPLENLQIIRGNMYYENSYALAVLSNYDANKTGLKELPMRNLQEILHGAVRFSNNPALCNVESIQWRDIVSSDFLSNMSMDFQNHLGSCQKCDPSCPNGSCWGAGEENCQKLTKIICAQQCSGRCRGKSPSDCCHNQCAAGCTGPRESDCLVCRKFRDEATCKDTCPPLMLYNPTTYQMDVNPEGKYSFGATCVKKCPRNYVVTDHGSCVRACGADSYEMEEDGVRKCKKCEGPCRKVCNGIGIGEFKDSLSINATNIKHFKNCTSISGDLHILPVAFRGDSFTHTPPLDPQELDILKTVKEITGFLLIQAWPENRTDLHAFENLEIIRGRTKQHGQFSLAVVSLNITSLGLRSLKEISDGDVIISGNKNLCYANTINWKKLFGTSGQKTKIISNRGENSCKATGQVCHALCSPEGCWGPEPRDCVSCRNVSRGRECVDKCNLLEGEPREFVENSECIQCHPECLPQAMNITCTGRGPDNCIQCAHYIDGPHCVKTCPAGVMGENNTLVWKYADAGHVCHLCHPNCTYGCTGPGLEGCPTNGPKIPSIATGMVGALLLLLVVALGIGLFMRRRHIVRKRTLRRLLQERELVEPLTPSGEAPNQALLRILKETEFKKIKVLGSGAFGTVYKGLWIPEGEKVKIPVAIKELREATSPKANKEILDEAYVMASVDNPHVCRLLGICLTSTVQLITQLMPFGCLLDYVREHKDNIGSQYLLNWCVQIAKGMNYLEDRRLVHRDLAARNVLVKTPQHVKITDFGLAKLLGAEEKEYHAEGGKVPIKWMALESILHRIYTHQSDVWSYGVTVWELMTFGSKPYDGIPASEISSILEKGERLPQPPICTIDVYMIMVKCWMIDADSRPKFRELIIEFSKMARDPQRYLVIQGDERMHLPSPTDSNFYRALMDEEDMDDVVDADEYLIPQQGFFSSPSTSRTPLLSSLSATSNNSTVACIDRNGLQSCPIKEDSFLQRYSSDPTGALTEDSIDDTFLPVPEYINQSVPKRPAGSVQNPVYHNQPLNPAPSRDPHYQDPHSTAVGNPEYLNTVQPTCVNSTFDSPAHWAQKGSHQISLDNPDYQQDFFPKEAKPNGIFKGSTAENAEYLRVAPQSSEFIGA
Chain of EGFR(Dell9_T790M_C797S) (aa 669-1210, in house) (P00533 with tags, fused parts or gaps DEL746-750/T790M/C797S, form open): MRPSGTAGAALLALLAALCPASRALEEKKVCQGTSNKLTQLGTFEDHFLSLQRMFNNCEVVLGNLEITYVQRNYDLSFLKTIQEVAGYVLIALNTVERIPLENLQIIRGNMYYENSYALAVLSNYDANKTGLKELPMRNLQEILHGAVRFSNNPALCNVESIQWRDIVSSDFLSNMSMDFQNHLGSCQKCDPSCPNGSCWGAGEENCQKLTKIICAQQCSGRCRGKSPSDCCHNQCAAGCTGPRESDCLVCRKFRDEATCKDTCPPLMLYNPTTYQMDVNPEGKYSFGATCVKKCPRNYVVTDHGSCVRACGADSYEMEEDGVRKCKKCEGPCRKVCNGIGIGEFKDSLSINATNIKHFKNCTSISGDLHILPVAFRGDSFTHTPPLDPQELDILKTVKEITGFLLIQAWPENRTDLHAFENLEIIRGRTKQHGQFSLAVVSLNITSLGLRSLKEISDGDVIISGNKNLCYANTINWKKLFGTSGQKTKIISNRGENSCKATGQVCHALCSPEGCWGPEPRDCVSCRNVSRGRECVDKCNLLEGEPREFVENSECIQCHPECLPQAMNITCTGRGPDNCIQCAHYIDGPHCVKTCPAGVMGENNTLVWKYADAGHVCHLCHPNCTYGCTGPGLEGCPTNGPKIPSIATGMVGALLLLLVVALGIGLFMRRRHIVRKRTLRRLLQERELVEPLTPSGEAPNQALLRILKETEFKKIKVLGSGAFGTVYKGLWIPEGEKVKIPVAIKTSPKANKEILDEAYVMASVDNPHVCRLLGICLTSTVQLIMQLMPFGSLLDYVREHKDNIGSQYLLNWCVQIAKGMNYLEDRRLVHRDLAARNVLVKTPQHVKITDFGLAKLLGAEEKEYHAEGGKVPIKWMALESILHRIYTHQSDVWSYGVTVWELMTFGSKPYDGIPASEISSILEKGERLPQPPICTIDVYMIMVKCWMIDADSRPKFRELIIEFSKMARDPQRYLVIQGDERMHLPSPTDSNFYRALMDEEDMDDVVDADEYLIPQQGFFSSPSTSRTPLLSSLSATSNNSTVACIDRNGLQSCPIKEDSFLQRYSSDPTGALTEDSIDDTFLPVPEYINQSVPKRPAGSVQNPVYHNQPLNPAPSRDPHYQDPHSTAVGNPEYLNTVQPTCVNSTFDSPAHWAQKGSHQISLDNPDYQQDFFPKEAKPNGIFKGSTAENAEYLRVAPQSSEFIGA

Regarding `COc1cc(N2CCC(N3CCN(C)CC3)CC2)ccc1Nc1ncc(Cl)c(Nc2ccc(Br)c3c2N(S(C)(=O)=O)CC3)n1` [Example 2, N^4-(4-bromo-1-(methylsulfonyl)indolin-7-yl)-5-chloro-N^2-(2-methoxy-4-(4-(4-methylpiperazin-1-yl)piperidin-1-yl)phenyl)pyrimidine-2,4-diamine], the IC50 amounted to 0.48 nM in experiment [1], 0.36 nM in experiment [2] and 0.64 nM in experiment [3]. Also, the values for the GI50 at BaF3-LR_TM_CS cells, at BaF3-WT cells and at BaF3-Del_TM_CS cells were 66.1 nM, 511 nM and 14.6 nM, respectively.

For `COc1cc(N2CCC(N3CCN(C)CC3)CC2)ccc1Nc1ncc(Cl)c(Nc2ccc(C)c3c2N(S(C)(=O)=O)CC3)n1` [Example 4, 5-chloro-N^2-(2-methoxy-4-(4-(4-methylpiperazin-1-yl)piperidin-1-yl)phenyl)-N^4-(4-methyl-1-(methylsulfonyl)indolin-7-yl)pyrimidine-2,4-diamine], the IC50 in experiment [1] was 0.27 nM; in experiment [2], 0.17 nM; in experiment [3], 0.49 nM. Moreover, the GI50 on BaF3-LR_TM_CS cells was found to be 57.2 nM; on BaF3-WT cells, 466 nM; on BaF3-Del_TM_CS cells it was 12 nM.

Regarding `COc1cc(N2CCC(N3CCN(C)CC3)CC2)ccc1Nc1ncc(Cl)c(Nc2cc(C)cc3c2N(S(C)(=O)=O)CC3)n1` [Example 5, 5-chloro-N^2-(2-methoxy-4-(4-(4-methylpiperazin-1-yl)piperidin-1-yl)phenyl)-N^4-(5-methyl-1-(methylsulfonyl)indolin-7-yl)pyrimidine-2,4-diamine], the IC50 in experiment [1] is 162 nM; in experiment [2], 159 nM; in experiment [3] it was 311 nM. The GI50 at BaF3-LR_TM_CS cells amounted to 1290 nM; on BaF3-WT cells, 2320 nM; on BaF3-Del_TM_CS cells it was 971 nM.

As for `CCCS(=O)(=O)N1CCc2cccc(Nc3nc(Nc4ccc(N5CCC(N6CCN(C)CC6)CC5)cc4OC)ncc3Cl)c21` [Example 6, 5-chloro-N^2-(2-methoxy-4-(4-(4-methylpiperazin-1-yl)piperidin-1-yl)phenyl)-N^4-(1-(propylsulfonyl)indolin-7-yl)pyrimidine-2,4-diamine], the results for the IC50 in experiment [1], in experiment [2] and in experiment [3] were 1.8 nM, 5.1 nM and 8.1 nM, respectively. Further, the GI50 turned out to be 221 nM on BaF3-LR_TM_CS cells, 1850 nM on BaF3-WT cells and 233 nM at BaF3-Del_TM_CS cells.

As to `COc1cc(N2CCC(N3CCN(C)CC3)CC2)ccc1Nc1ncc(Cl)c(Nc2cccc3c2N(S(=O)(=O)C2CC2)CC3)n1` [Example 7, 5-chloro-N^4-(1-(cyclopropylsulfonyl)indolin-7-yl)-N^2-(2-methoxy-4-(4-(4-methylpiperazin-1-yl)piperidin-1-yl)phenyl)pyrimidine-2,4-diamine], the figures for the IC50 in experiment [1], in experiment [2] and in experiment [3] were 0.61 nM, 0.57 nM and 1.8 nM, respectively. The GI50 on BaF3-LR_TM_CS cells came to 81.6 nM; at BaF3-WT cells, 457 nM; at BaF3-Del_TM_CS cells, 53.9 nM.

`COc1cc(N2CCC(N3CCN(C)CC3)CC2)ccc1Nc1ncc(Cl)c(Nc2cccc3c2N(S(=O)(=O)CCc2ccccc2)CC3)n1` [Example 8, 5-chloro-N^2-(2-methoxy-4-(4-(4-methylpiperazin-1-yl)piperidin-1-yl)phenyl)-N^4-(1-(phenethylsulfonyl)indolin-7-yl)pyrimidine-2,4-diamine]: the figures for the IC50 in experiment [1], in experiment [2] and in experiment [3] were 21 nM, 121 nM and 14 nM, respectively. The GI50 on BaF3-LR_TM_CS cells was determined as 730 nM; at BaF3-WT cells, 1860 nM; on BaF3-Del_TM_CS cells, 630 nM.

Take `COc1cc(N2CCC(N3CCN(C)CC3)CC2)ccc1Nc1ncc(Cl)c(Nc2cccc3c2N(S(=O)(=O)C(C)(C)C)CC3)n1` [Example 9, N^4-(1-(tert-butylsulfonyl)indolin-7-yl)-5-chloro-N^2-(2-methoxy-4-(4-(4-methylpiperazin-1-yl)piperidin-1-yl)phenyl)pyrimidine-2,4-diamine]: the IC50 came out at 13 nM in experiment [1], 186 nM in experiment [2] and 187 nM in experiment [3]. Besides, the GI50 at BaF3-LR_TM_CS cells was found to be 428 nM; at BaF3-WT cells it was 1640 nM; on BaF3-Del_TM_CS cells, 455 nM.

In the case of `COc1cc(N2CCC(N3CCN(C)CC3)CC2)ccc1Nc1ncc(Cl)c(Nc2cccc3c2N(S(C)(=O)=O)CCC3)n1` [Example 10, 5-chloro-N^2-(2-methoxy-4-(4-(4-methylpiperazin-1-yl)piperidin-1-yl)phenyl)-N^4-(1-(methylsulfonyl)-1,2,3,4-tetrahydroquinolin-8-yl)pyrimidine-2,4-diamine], the IC50 in experiment [1] came to 1.5 nM; in experiment [2], 0.39 nM; in experiment [3], 2.6 nM. In addition, the GI50 on BaF3-LR_TM_CS cells is 143 nM; on BaF3-WT cells, 1870 nM; on BaF3-Del_TM_CS cells it was 46 nM.

On to `COc1cc(N2CCC(N3CCN(C)CC3)CC2)ccc1Nc1ncc(Cl)c(Nc2cccc3c2N(S(=O)(=O)CC2CC(F)(F)C2)CC3)n1` [Example 11, 5-chloro-N^4-(1-(((3,3-difluorocyclobutyl)methyl)sulfonyl)indolin-7-yl)-N^2-(2-methoxy-4-(4-(4-methylpiperazin-1-yl)piperidin-1-yl)phenyl)pyrimidine-2,4-diamine], for which the IC50 in experiment [1] came to 5.5 nM; in experiment [2], 38 nM; in experiment [3], 37 nM. The figures for the GI50 on BaF3-LR_TM_CS cells, at BaF3-WT cells and on BaF3-Del_TM_CS cells were 377 nM, 2280 nM and 453 nM, respectively.

As for `COc1cc(N2CCC(N3CCN(C)CC3)CC2)ccc1Nc1ncc(Cl)c(Nc2cccc3c2N(S(=O)(=O)N(C)C)CC3)n1` [Example 13, 7-((5-chloro-2-((2-methoxy-4-(4-(4-methylpiperazin-1-yl)piperidin-1-yl)phenyl)amino)pyrimidin-4-yl)amino)-N,N-dimethylindoline-1-sulfonamide], the IC50 in experiment [1] is 1.3 nM; in experiment [2] it was 6.2 nM; in experiment [3], 13 nM. Moreover, the GI50 at BaF3-LR_TM_CS cells was found to be 294 nM; on BaF3-WT cells, 897 nM; on BaF3-Del_TM_CS cells, 158 nM.

Regarding `CNS(=O)(=O)N1CCc2cccc(Nc3nc(Nc4ccc(N5CCC(N6CCN(C)CC6)CC5)cc4OC)ncc3Cl)c21` [Example 14, 7-((5-chloro-2-((2-methoxy-4-(4-(4-methylpiperazin-1-yl)piperidin-1-yl)phenyl)amino)pyrimidin-4-yl)amino)-N-methylindoline-1-sulfonamide], the IC50 was found to be 0.24 nM in experiment [1], 0.59 nM in experiment [2] and 1.4 nM in experiment [3]. The GI50 was found to be 14.3 nM on BaF3-LR_TM_CS cells, 193 nM at BaF3-WT cells and 8.76 nM at BaF3-Del_TM_CS cells.

Consider `COc1cc(N2CCC(N3CCN(C)CC3)CC2)ccc1Nc1ncc(Cl)c(Nc2cccc3c2N(C(=O)N(C)C)CC3)n1` [Example 15, 7-((5-chloro-2-((2-methoxy-4-(4-(4-methylpiperazin-1-yl)piperidin-1-yl)phenyl)amino)pyrimidin-4-yl)amino)-N,N-dimethylindoline-1-carboxamide], for which the figures for the IC50 in experiment [1], in experiment [2] and in experiment [3] were 369 nM, 2200 nM and 1360 nM, respectively. Also, the GI50 worked out at 2030 nM on BaF3-LR_TM_CS cells, 4120 nM on BaF3-WT cells and 1800 nM at BaF3-Del_TM_CS cells.
